# According to patent US9034336B2, “Immunomodulators and immunomodulator conjugates” (Regents of the University of Minnesota, priority 2011, dated 2015):
# “Also recorded” adds a separate entry of the source.
# Key:
# [1] = tested on: human monocyte-derived dendritic cells (MoDC); assay: Human MoDC immunostaining and flow cytometric analysis (maturation, DC phenotype); assay type: cell-based
# Protocol: (§1) 1. Dendritic cells were generated from peripheral blood monocytes as described (Brossart P, et al. Blood. 1998; 92: 4238-4247). In brief, CD14 positive monocytes were from a healthy human peripheral blood mononuclear cells (PBMC) obtained via isolation with Lymphocyte Separation Medium (Mediatech, Inc, Manassas, Va.) and after purification with CD14 microbeads from Miltenyi Biotec Inc (Aubun, Calif.). The CD14 positive monocytes (>95% CD14) were cultured into immature monocyte-derived dendritic cells (MoDC) by further 6 day culture with GM-CSF (100 ng/ml) and IL-4 (100 ng/ml)(R&D, MN). 2. 0.1 million of MoDC were plated into 96-well plate and stimulated for 48 hours with 5 different concentration of following TLRs: 412, 420, 421, 414 and 415 at concentration of 0, 0.325, 1.3, 5.2 and 20.8 nmol/ml in triplicate. In other experiments (FIGS. 34 and 35), fresh PBMC (not DC) were used as the responder cells to the indicated compounds and cytokines levels were measured by bead array according to the manufacture's protocol (BD biosciences).
# 48 hours after stimulation, the cells were stained with anti-HLA-DR, CD11c, CD-86, CD80, CD83, CD8a, CD123 and relevant isotype control (eBioscience, San Diego, Calif.). The cells were loaded on FACS-canto II and analyzed with FACSDiva and Flowjo
# mouse splenocytes = assay: Inflammatory cytokine detection in splenocytes (CBA); assay type: cell-based, C57BL/6j mice
# Protocol: (§2) Bone marrow cells were harvested from femurs and tibias of C57BL/6j. After red blood cells were removed with ammonium-chloride-potassium buffer, the bone marrow cells were cultured with complete RPMI-1640 medium and 2 ng/ml of granulocyte macrophage colony-stimulating factor (GM-CFS) at 5% CO2 and 37° C. for 6 days. Medium was changed twice during 6 days culture. Single cell suspension of splenocytes was prepared in the same way as one in IL-6 detection assay. BMDC or splenocytes were stimulated in triplicate with Imiquimod-derived new TLR ligand compounds, 412, 420, 421, 422, IMQ (414) and Resquimod (415) at various concentration of 20.8 nmol/ml, 5.2 nmol/ml, 1.3 nmol/ml, 0.325 nmol/ml and 0 nmol/ml. 48 hours after stimulation, the supernatants were harvested and frozen at −80° C. until detection. A cytometric bead array (CBA, BD Bioscience) was performed on inflammatory cytokines following the manufacture's instruction. 500 events were collected. Analysis of all samples was performed on FACScanto-II machine with software and further analyzed with Flowjo. Standard curves and negative control (PBS) were included for each cytokine to calculate the cytokine concentration in the samples.
# [2] = tested on: human monocyte-derived dendritic cells (MoDC); assay: Human MoDC inflammatory cytokines by cytometric bead assay; assay type: cell-based
# Protocol: as §1
# The supernatant were harvested 48 hours after stimulation with TLRs. Inflammatory cytokines level was identified with CBA, following the producer's instruction (BD, San Jose, Calif.)
# human TLR7 = biological target: T1, human TLR7 (Homo sapiens, UniProt Q9NYK1); assay: TLR7/8-NF-κB reporter assay (HEK-TLR7, SEAP); assay type: cell-based; settings: HEK-TLR7 cells, 24 hrs, read-out: EC50 of TLR7 (mean ± SD)
# T1 construct: host or cells: HEK (HEK293) cells with NF-kB-responsive SEAP reporter
# T1 sequence (Q9NYK1 27-1049): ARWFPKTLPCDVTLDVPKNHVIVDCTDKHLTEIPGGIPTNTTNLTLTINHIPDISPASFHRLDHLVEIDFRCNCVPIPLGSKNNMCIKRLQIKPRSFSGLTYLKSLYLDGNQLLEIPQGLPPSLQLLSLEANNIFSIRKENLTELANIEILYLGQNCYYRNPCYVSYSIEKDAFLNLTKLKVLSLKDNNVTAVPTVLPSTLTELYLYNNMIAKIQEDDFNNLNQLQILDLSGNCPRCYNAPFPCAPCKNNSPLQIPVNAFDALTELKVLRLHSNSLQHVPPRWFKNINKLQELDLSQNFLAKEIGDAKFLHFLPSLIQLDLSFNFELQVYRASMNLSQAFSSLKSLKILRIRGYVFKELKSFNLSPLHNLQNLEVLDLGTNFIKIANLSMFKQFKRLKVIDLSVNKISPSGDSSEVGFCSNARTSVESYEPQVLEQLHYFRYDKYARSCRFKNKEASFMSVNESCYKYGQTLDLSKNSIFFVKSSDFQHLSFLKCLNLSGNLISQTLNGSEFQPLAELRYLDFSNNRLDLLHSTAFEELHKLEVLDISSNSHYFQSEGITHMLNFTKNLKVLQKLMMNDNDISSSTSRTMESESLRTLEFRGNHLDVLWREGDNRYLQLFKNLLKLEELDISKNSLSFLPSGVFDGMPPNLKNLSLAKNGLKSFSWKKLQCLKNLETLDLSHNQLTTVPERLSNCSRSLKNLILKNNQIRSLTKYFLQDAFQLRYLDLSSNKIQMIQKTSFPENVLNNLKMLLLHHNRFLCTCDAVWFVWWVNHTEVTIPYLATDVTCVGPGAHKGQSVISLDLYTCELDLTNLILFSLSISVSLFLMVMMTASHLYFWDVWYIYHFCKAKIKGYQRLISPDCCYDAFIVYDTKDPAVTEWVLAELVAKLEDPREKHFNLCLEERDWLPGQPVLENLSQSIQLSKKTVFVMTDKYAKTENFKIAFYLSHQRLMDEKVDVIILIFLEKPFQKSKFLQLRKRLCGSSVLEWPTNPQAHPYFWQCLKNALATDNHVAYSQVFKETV
# Protocol: Human embryonic kidney (HEK) cells that were stably transfected with human TLR7 or TLR8 and an NF-κB—responsive secreted embryonic alkaline phosphatase (SEAP) gene (HEK-TLR7/8) were purchased from InvivoGen (San Diego, Calif.). The procedure used to measure TLR7 or TLR8 agonist activity was conducted as described by Hood et al. (Hood J. D, et al., Human Vaccines, 2010, 6, 4, 322-335). Briefly, HEK-TLR7/8 cells were stimulated with 3.3 or 30 μM of compound in a 96-well plate in DMEM containing 10% FBS and 0.01% Normocin (InvivoGen) for 24 hrs. Twenty microliters of the supernatant from each well was incubated with Quanti-blue substrate solution (InvivoGen) at 37° C. for 1 hour and absorbance was read at 650 nm using a Synergy plate reader (Biotek, Winooski, Vt.).
# BMDC or splenocytes = assay: Inflammatory cytokine detection in BMDC and splenocytes (CBA); assay type: cell-based, C57BL/6j mice; settings: Example 6, FIG. 23; compared to resiquimod and imiquimod
# Protocol: as §2
smiles,measurement,setting,value
"CCCCc1nc2c(N)nc3cc(C(=O)OC)ccc3c2n1CC(C)(C)O [Compound 420, 4-Amino-2-butyl-1-(2-hydroxy-2-methylpropyl)-7-methoxycarbonyl-1H-imidazo[4,5-c]quinoline]",differentiation of myeloid DC into CD123+ plasmacytoid DC,[1]; human MoDC (FIG. 4),did not
same,MoDC maturation (raising CD86 co-stimulator level and CD83),"[1]; human MoDC, 48 hours after stimulation",same efficiency as Resiquimod and significantly stronger than imiquimod
same,IL-10 (anti-inflammatory) secretion,mouse splenocytes,less IL-10 (anti-inflammatory) secretion compared to resiquimod
same,IL-1β induction / secretion,[2]; human MoDC (FIG. 11),induction of IL-1β; also recorded: the only drug tested that caused appreciable IL-1b secretion
same,production of inflammatory cytokines,"[2]; human MoDC, supernatant 48 hours after stimulation","higher production of “inflammatory cytokines”, compared to imiquimod (but less stronger than Resquimod)"
same,EC50,human TLR7,1520 ± 70 nM
same,elaboration of proinflammatory TNFa,BMDC or splenocytes,significantly greater elaboration of proinflammatory TNFa compared to the other drugs
